Data as given in PMC11157767 (Molecular Cancer, 2024).

Tested on: TFG-MET allograft tumors
Test: RNA-sequencing, differential expression and GSEA of TFG-MET allograft tumors
Format: in vivo, mouse
Details: GSEA CAP vs Veh, C5 GO CC
Method: Error bars display standard error of mean, statistical significance was determined using t-test analysis. (****;p<0.0001, ***;p<0.001, **;p<0.01, *;p<0.05). […] Each dot represents an individual replicate. Error bars display standard error of the mean.
Each dot represents one gene.

Compound: CNC(=O)c1ccc(-c2cnc3ncc(Cc4ccc5ncccc5c4)n3n2)cc1F [Capmatinib]
- NES GOCC_TRANSFERASE_COMPLEX (padj 2.19055e-16): -1.9384
- NES GOCC_NUCLEAR_SPECK (padj 5.1503e-15): -2.161
- NES GOCC_SPLICEOSOMAL_COMPLEX (padj 1.72395e-14): -2.415
- NES GOCC_CHROMOSOME_TELOMERIC_REGION (padj 7.63768e-14): -2.533
- NES GOCC_VACUOLAR_MEMBRANE (padj 7.95066e-13): 2.04
- NES GOCC_SMALL_SUBUNIT_PROCESSOME (padj 1.82971e-12): -2.75
- NES GOCC_NUCLEAR_PORE (padj 1.03541e-11): -2.588
- NES GOCC_FIBRILLAR_CENTER (padj 1.07393e-11): -2.424
- NES GOCC_CHROMATIN (padj 1.91271e-11): -1.714
- NES GOCC_PRERIBOSOME_LARGE_SUBUNIT_PRECURSOR (padj 2.94795e-11): -2.651
- NES GOCC_METHYLTRANSFERASE_COMPLEX (padj 4.53721e-11): -2.484
- NES GOCC_NUCLEAR_CHROMOSOME (padj 7.98955e-11): -2.219
- NES GOCC_RESPIRATORY_CHAIN_COMPLEX (padj 1.33777e-10): 2.821
- NES GOCC_NUCLEAR_PERIPHERY (padj 2.5338e-10): -2.3519
- NES GOCC_NUCLEAR_ENVELOPE (padj 3.91151e-9): -1.852
- NES GOCC_RIBONUCLEOPROTEIN_GRANULE (padj 4.48536e-8): -2.04
- NES GOCC_CATALYTIC_STEP_2_SPLICEOSOME (padj 5.62031e-8): -2.31
- NES GOCC_INTRACELLULAR_PROTEIN_CONTAINING_COMPLEX (padj 6.31135e-8): -1.665
- NES GOCC_TRANSCRIPTION_REGULATOR_COMPLEX (padj 7.03454e-8): -1.873
- NES GOCC_CAJAL_BODY (padj 7.11025e-8): -2.347
- NES GOCC_U2_TYPE_SPLICEOSOMAL_COMPLEX (padj 1.20627e-7): -2.187
- NES GOCC_CILIUM (padj 1.31956e-7): 1.633
- NES GOCC_CONDENSED_CHROMOSOME (padj 1.56303e-7): -2.04
- NES GOCC_IMMUNOGLOBULIN_COMPLEX (padj 1.76109e-7): 2.5876
- NES GOCC_CHROMOSOME_CENTROMERIC_REGION (padj 2.31902e-7): -2.023
- NES GOCC_TRANSFERASE_COMPLEX_TRANSFERRING_PHOSPHORUS_CONTAINING_GROUPS (padj 2.54822e-7): -1.9355
- NES GOCC_MOTILE_CILIUM (padj 6.10966e-7): 2.148
- NES GOCC_INNER_MITOCHONDRIAL_MEMBRANE_PROTEIN_COMPLEX (padj 1.03286e-6): 2.0966
- NES GOCC_HISTONE_METHYLTRANSFERASE_COMPLEX (padj 1.09294e-6): -2.238
- NES GOCC_TERTIARY_GRANULE (padj 1.29564e-6): 2.058
- NES GOCC_NUCLEAR_MEMBRANE (padj 1.93407e-6): -1.855
- NES GOCC_NADH_DEHYDROGENASE_COMPLEX (padj 2.62751e-6): 2.526
- NES GOCC_SM_LIKE_PROTEIN_FAMILY_COMPLEX (padj 3.06538e-6): -2.133
- NES GOCC_LATE_ENDOSOME_MEMBRANE (padj 3.31031e-6): 2.097
- NES GOCC_RNA_POLYMERASE_COMPLEX (padj 3.74343e-6): -2.068
- NES GOCC_HETEROCHROMATIN (padj 4.96006e-6): -2.172
- NES GOCC_PROTEIN_ACETYLTRANSFERASE_COMPLEX (padj 5.11894e-6): -2.115
- NES GOCC_CYTOPLASMIC_STRESS_GRANULE (padj 1.16359e-5): -2.152
- NES GOCC_VACUOLAR_LUMEN (padj 1.16897e-5): 1.934
- NES GOCC_SECRETORY_GRANULE_MEMBRANE (padj 1.40276e-5): 1.763
- NES GOCC_OXIDOREDUCTASE_COMPLEX (padj 1.71689e-5): 2.0601
- NES GOCC_EXTERNAL_SIDE_OF_PLASMA_MEMBRANE (padj 2.05111e-5): 1.72
- NES GOCC_CONDENSED_CHROMOSOME_CENTROMERIC_REGION (padj 2.22571e-5): -1.979
- NES GOCC_SNO_S_RNA_CONTAINING_RIBONUCLEOPROTEIN_COMPLEX (padj 3.58719e-5): -2.2
- NES GOCC_PHAGOCYTIC_VESICLE (padj 3.73055e-5): 1.9159
- NES GOCC_HOST_CELLULAR_COMPONENT (padj 4.79591e-5): -2.0648
- NES GOCC_SITE_OF_DNA_DAMAGE (padj 6.26347e-5): -2.003
- NES GOCC_AZUROPHIL_GRANULE (padj 6.43287e-5): 1.861
- NES GOCC_KINETOCHORE (padj 6.63265e-5): -1.897
- NES GOCC_AUTOPHAGOSOME (padj 6.99707e-5): 2.034
- NES GOCC_RNA_POLYMERASE_II_TRANSCRIPTION_REGULATOR_COMPLEX (padj 0.000108731): -1.813
- NES GOCC_PML_BODY (padj 0.000125034): -1.9697
- NES GOCC_EXORIBONUCLEASE_COMPLEX (padj 0.000154107): -2.113
- NES GOCC_ENDORIBONUCLEASE_COMPLEX (padj 0.000165343): -2.09
- NES GOCC_SMALL_NUCLEAR_RIBONUCLEOPROTEIN_COMPLEX (padj 0.000179714): -2.0229
- NES GOCC_IMMUNOGLOBULIN_COMPLEX_CIRCULATING (padj 0.000186482): 2.324
- NES GOCC_TERTIARY_GRANULE_MEMBRANE (padj 0.000272562): 2.004
- NES GOCC_VESICLE_LUMEN (padj 0.000275827): 1.602
- NES GOCC_LYSOSOMAL_LUMEN (padj 0.000331136): 1.858
- NES GOCC_REPLICATION_FORK (padj 0.000358866): -1.947
- NES GOCC_PRECATALYTIC_SPLICEOSOME (padj 0.000460788): -1.97
- NES GOCC_EUCHROMATIN (padj 0.000526361): -2.018
- NES GOCC_FICOLIN_1_RICH_GRANULE_MEMBRANE (padj 0.000558545): 2.085
- NES GOCC_CYTOCHROME_COMPLEX (padj 0.000649179): 2.153
- NES GOCC_PROTEIN_DNA_COMPLEX (padj 0.000678026): -1.836
- NES GOCC_SITE_OF_DOUBLE_STRAND_BREAK (padj 0.000757696): -1.897
- NES GOCC_PROTON_TRANSPORTING_TWO_SECTOR_ATPASE_COMPLEX (padj 0.000783651): 2.098
- NES GOCC_SPECIFIC_GRANULE (padj 0.000783651): 1.663
- NES GOCC_MLL1_2_COMPLEX (padj 0.000871379): -2.023
- NES GOCC_RESPIRATORY_CHAIN_COMPLEX_IV (padj 0.000871379): 2.188
- NES GOCC_CILIARY_TRANSITION_ZONE (padj 0.000882106): 1.976
- NES GOCC_BLOOD_MICROPARTICLE (padj 0.000959119): 1.774
- NES GOCC_PHAGOCYTIC_VESICLE_MEMBRANE (padj 0.00129051): 1.86
- NES GOCC_SECONDARY_LYSOSOME (padj 0.00130287): 2.219
- NES GOCC_TRANSCRIPTION_ELONGATION_FACTOR_COMPLEX (padj 0.00152226): -1.897
- NES GOCC_NUCLEAR_REPLICATION_FORK (padj 0.00173594): -1.935
- NES GOCC_TELOMERASE_HOLOENZYME_COMPLEX (padj 0.00174948): -1.978
- NES GOCC_H4_HISTONE_ACETYLTRANSFERASE_COMPLEX (padj 0.00185976): -1.863
- NES GOCC_CILIARY_PLASM (padj 0.00189918): 1.756
- NES GOCC_POLYSOME (padj 0.00219768): -1.796
- NES GOCC_PCG_PROTEIN_COMPLEX (padj 0.00279919): -1.842
- NES GOCC_T_CELL_RECEPTOR_COMPLEX (padj 0.00319727): 2.053
- NES GOCC_U2_TYPE_CATALYTIC_STEP_2_SPLICEOSOME (padj 0.00319727): -1.927
- NES GOCC_SIDE_OF_MEMBRANE (padj 0.00331543): 1.318
- NES GOCC_AZUROPHIL_GRANULE_LUMEN (padj 0.00386407): 1.725
- NES GOCC_EUKARYOTIC_TRANSLATION_INITIATION_FACTOR_3_COMPLEX (padj 0.00386407): -1.892
- NES GOCC_PROTON_TRANSPORTING_TWO_SECTOR_ATPASE_COMPLEX_PROTON_TRANSPORTING_DOMAIN (padj 0.00392051): 2.029
- NES GOCC_SYNAPTIC_VESICLE_MEMBRANE (padj 0.00392051): 1.708
- NES GOCC_SMN_SM_PROTEIN_COMPLEX (padj 0.00460194): -1.879
- NES GOCC_MHC_PROTEIN_COMPLEX (padj 0.00465351): 2.03
- NES GOCC_PLASMA_MEMBRANE_BOUNDED_CELL_PROJECTION_CYTOPLASM (padj 0.00477082): 1.5011
- NES GOCC_TRANSLATION_PREINITIATION_COMPLEX (padj 0.00477082): -1.882
- NES GOCC_9PLUS2_MOTILE_CILIUM (padj 0.00505147): 1.741
- NES GOCC_FICOLIN_1_RICH_GRANULE (padj 0.00518961): 1.502
- NES GOCC_ENDOSOME_MEMBRANE (padj 0.00609112): 1.2787
- NES GOCC_PRESPLICEOSOME (padj 0.00659701): -1.8326
- NES GOCC_ATPASE_COMPLEX (padj 0.007008): -1.657
- NES GOCC_ENDOLYSOSOME (padj 0.00786364): 1.964
- NES GOCC_EUKARYOTIC_48S_PREINITIATION_COMPLEX (padj 0.00886352): -1.849
- NES GOCC_PHAGOPHORE_ASSEMBLY_SITE (padj 0.00895831): 1.892
- NES GOCC_INTRACILIARY_TRANSPORT_PARTICLE (padj 0.00906928): 1.972
- NES GOCC_TRANSCRIPTION_REPRESSOR_COMPLEX (padj 0.00954254): -1.652
